Measurements as given in ChEMBL document CHEMBL4765227, “Hit to lead optimization of a series of N-[4-(1,3-benzothiazol-2-yl)phenyl]acetamides as monoacylglycerol lipase inhibitors with potential anticancer activity” (Eur J Med Chem, 2016).

Experiments:
Assay type in all cases: functional
Details in all cases: read-out: GI
[1] = tested on: NCI-H522; test: Growth inhibition of human NCI-H522 cells at 10 uM incubated for 48 hrs by sulforhodamine B assay relative to control
[2] = tested on: OVCAR-8; test: Growth inhibition of human OVCAR-8 cells at 10 uM incubated for 48 hrs by sulforhodamine B assay relative to control
[3] = tested on: HOP-62; test: Growth inhibition of human HOP-62 cells at 10 uM incubated for 48 hrs by sulforhodamine B assay relative to control
[4] = tested on: SW-620; test: Growth inhibition of human SW-620 cells at 10 uM incubated for 48 hrs by sulforhodamine B assay relative to control
[5] = tested on: MDA-MB-231; test: Growth inhibition of human MDA-MB-231 cells at 10 uM incubated for 48 hrs by sulforhodamine B assay relative to control
[6] = tested on: UACC-257; test: Growth inhibition of human UACC-257 cells at 10 uM incubated for 48 hrs by sulforhodamine B assay relative to control
[7] = tested on: LOX IMVI; test: Growth inhibition of human LOX IMVI cells at 10 uM incubated for 48 hrs by sulforhodamine B assay relative to control
[8] = tested on: OVCAR-5; test: Growth inhibition of human OVCAR-5 cells at 10 uM incubated for 48 hrs by sulforhodamine B assay relative to control
[9] = tested on: NCI-H226; test: Growth inhibition of human NCI-H226 cells at 10 uM incubated for 48 hrs by sulforhodamine B assay relative to control
[10] = tested on: UO-31; test: Growth inhibition of human UO-31 cells at 10 uM incubated for 48 hrs by sulforhodamine B assay relative to control
[11] = tested on: NCI-H322M; test: Growth inhibition of human NCI-H322M cells at 10 uM incubated for 48 hrs by sulforhodamine B assay relative to control
[12] = tested on: SF-268; test: Growth inhibition of human SF-268 cells at 10 uM incubated for 48 hrs by sulforhodamine B assay relative to control
[13] = tested on: COLO 205; test: Growth inhibition of human COLO 205 cells at 10 uM incubated for 48 hrs by sulforhodamine B assay relative to control
[14] = tested on: HCC 2998; test: Growth inhibition of human HCC 2998 cells at 10 uM incubated for 48 hrs by sulforhodamine B assay relative to control
[15] = tested on: SR; test: Growth inhibition of human SR cells at 10 uM incubated for 48 hrs by sulforhodamine B assay relative to control
[16] = tested on: OVCAR-3; test: Growth inhibition of human OVCAR-3 cells at 10 uM incubated for 48 hrs by sulforhodamine B assay relative to control
[17] = tested on: SF-539; test: Growth inhibition of human SF-539 cells at 10 uM incubated for 48 hrs by sulforhodamine B assay relative to control
[18] = tested on: PC-3; test: Growth inhibition of human PC-3 cells at 10 uM incubated for 48 hrs by sulforhodamine B assay relative to control
[19] = tested on: U-251; test: Growth inhibition of human U-251 cells at 10 uM incubated for 48 hrs by sulforhodamine B assay relative to control
[20] = tested on: MCF7; test: Growth inhibition of human MCF7 cells at 10 uM incubated for 48 hrs by sulforhodamine B assay relative to control
[21] = tested on: OVCAR-4; test: Growth inhibition of human OVCAR-4 cells at 10 uM incubated for 48 hrs by sulforhodamine B assay relative to control
[22] = tested on: MOLT-4; test: Growth inhibition of human MOLT-4 cells at 10 uM incubated for 48 hrs by sulforhodamine B assay relative to control
[23] = tested on: ACHN; test: Growth inhibition of human ACHN cells at 10 uM incubated for 48 hrs by sulforhodamine B assay relative to control
[24] = tested on: DU-145; test: Growth inhibition of human DU-145 cells at 10 uM incubated for 48 hrs by sulforhodamine B assay relative to control
[25] = tested on: 786-0; test: Growth inhibition of human 786-0 cells at 10 uM incubated for 48 hrs by sulforhodamine B assay relative to control
[26] = tested on: RPMI-8226; test: Growth inhibition of human RPMI-8226 cells at 10 uM incubated for 48 hrs by sulforhodamine B assay relative to control
[27] = tested on: RXF 393; test: Growth inhibition of human RXF 393 cells at 10 uM incubated for 48 hrs by sulforhodamine B assay relative to control
[28] = tested on: KM12; test: Growth inhibition of human KM12 cells at 10 uM incubated for 48 hrs by sulforhodamine B assay relative to control
[29] = tested on: M14; test: Growth inhibition of human M14 cells at 10 uM incubated for 48 hrs by sulforhodamine B assay relative to control
[30] = tested on: HCT-116; test: Growth inhibition of human HCT-116 cells at 10 uM incubated for 48 hrs by sulforhodamine B assay relative to control
[31] = tested on: SN12C; test: Growth inhibition of human SN12C cells at 10 uM incubated for 48 hrs by sulforhodamine B assay relative to control
[32] = tested on: MDA-MB-468; test: Growth inhibition of human MDA-MB-468 cells at 10 uM incubated for 48 hrs by sulforhodamine B assay relative to control
[33] = tested on: HOP-92; test: Growth inhibition of human HOP-92 cells at 10 uM incubated for 48 hrs by sulforhodamine B assay relative to control
[34] = tested on: NCI-H23; test: Growth inhibition of human NCI-H23 cells at 10 uM incubated for 48 hrs by sulforhodamine B assay relative to control
[35] = tested on: Malme-3M; test: Growth inhibition of human Malme-3M cells at 10 uM incubated for 48 hrs by sulforhodamine B assay relative to control
[36] = tested on: CAKI-1; test: Growth inhibition of human CAKI-1 cells at 10 uM incubated for 48 hrs by sulforhodamine B assay relative to control
[37] = tested on: NCI/ADR-RES; test: Growth inhibition of human NCI/ADR-RES cells at 10 uM incubated for 48 hrs by sulforhodamine B assay relative to control
[38] = tested on: SF-295; test: Growth inhibition of human SF-295 cells at 10 uM incubated for 48 hrs by sulforhodamine B assay relative to control
[39] = tested on: Hs-578T; test: Growth inhibition of human Hs-578T cells at 10 uM incubated for 48 hrs by sulforhodamine B assay relative to control
[40] = tested on: A549; test: Growth inhibition of human A549/ATCC cells at 10 uM incubated for 48 hrs by sulforhodamine B assay relative to control
[41] = tested on: HCT-15; test: Growth inhibition of human HCT-15 cells at 10 uM incubated for 48 hrs by sulforhodamine B assay relative to control
[42] = tested on: HL-60(TB); test: Growth inhibition of human HL-60(TB) cells at 10 uM incubated for 48 hrs by sulforhodamine B assay relative to control
[43] = tested on: HT-29; test: Growth inhibition of human HT-29 cells at 10 uM incubated for 48 hrs by sulforhodamine B assay relative to control
[44] = tested on: SNB-75; test: Growth inhibition of human SNB-75 cells at 10 uM incubated for 48 hrs by sulforhodamine B assay relative to control

O=C(CN1CCOCC1)Nc1ccc(-c2nc3ccccc3s2)cc1
inhibition of growth at 10 µM [1]: 5.46% | inhibition of growth at 10 µM [2]: -2.44% | inhibition of growth at 10 µM [3]: -6.41% | inhibition of growth at 10 µM [4]: -7.93% | inhibition of growth at 10 µM [5]: 3.16% | inhibition of growth at 10 µM [6]: -1.38% | inhibition of growth at 10 µM [7]: 0.08% | inhibition of growth at 10 µM [8]: 6.58% | inhibition of growth at 10 µM [9]: 4.99% | inhibition of growth at 10 µM [10]: 4.97% | inhibition of growth at 10 µM [11]: -0.11% | inhibition of growth at 10 µM [12]: -10.3% | inhibition of growth at 10 µM [13]: -15.3% | inhibition of growth at 10 µM [14]: 12% | inhibition of growth at 10 µM [15]: -2.12% | inhibition of growth at 10 µM [16]: 3.74% | inhibition of growth at 10 µM [17]: 10.3% | inhibition of growth at 10 µM [18]: 6.98% | inhibition of growth at 10 µM [19]: 10.5% | inhibition of growth at 10 µM [20]: 51.2% | inhibition of growth at 10 µM [21]: -0.52% | inhibition of growth at 10 µM [22]: 0.57% | inhibition of growth at 10 µM [23]: -4.03% | inhibition of growth at 10 µM [24]: -9.1% | inhibition of growth at 10 µM [25]: -1.3% | inhibition of growth at 10 µM [26]: 6% | inhibition of growth at 10 µM [27]: -11.4% | inhibition of growth at 10 µM [28]: -6.84% | inhibition of growth at 10 µM [29]: -1.15% | inhibition of growth at 10 µM [30]: 3.9% | inhibition of growth at 10 µM [31]: -1.02% | inhibition of growth at 10 µM [32]: 107% | inhibition of growth at 10 µM [33]: 16.7% | inhibition of growth at 10 µM [34]: 4.49% | inhibition of growth at 10 µM [35]: -17% | inhibition of growth at 10 µM [36]: 0.31% | inhibition of growth at 10 µM [37]: -4.92% | inhibition of growth at 10 µM [38]: 1.81% | inhibition of growth at 10 µM [39]: -9.77% | inhibition of growth at 10 µM [40]: 6.19% | inhibition of growth at 10 µM [41]: 6.26% | inhibition of growth at 10 µM [42]: -0.57% | inhibition of growth at 10 µM [43]: -3.04% | inhibition of growth at 10 µM [44]: 0.01%

CN1CCN(CC(=O)Nc2ccc(-c3nc4ccccc4s3)cc2)CC1
inhibition of growth at 10 µM [1]: 41.1% | inhibition of growth at 10 µM [2]: 8.74% | inhibition of growth at 10 µM [3]: 12.7% | inhibition of growth at 10 µM [4]: -2.26% | inhibition of growth at 10 µM [5]: 40.2% | inhibition of growth at 10 µM [6]: -5.35% | inhibition of growth at 10 µM [7]: 134% | inhibition of growth at 10 µM [8]: 27.1% | inhibition of growth at 10 µM [9]: 3.83% | inhibition of growth at 10 µM [10]: 42.5% | inhibition of growth at 10 µM [11]: 22.1% | inhibition of growth at 10 µM [12]: 17% | inhibition of growth at 10 µM [13]: 60.3% | inhibition of growth at 10 µM [14]: 22.7% | inhibition of growth at 10 µM [15]: 93.7% | inhibition of growth at 10 µM [16]: 0.78% | inhibition of growth at 10 µM [17]: 132% | inhibition of growth at 10 µM [18]: 16.4% | inhibition of growth at 10 µM [19]: 32.5% | inhibition of growth at 10 µM [20]: 63.2% | inhibition of growth at 10 µM [21]: 12.7% | inhibition of growth at 10 µM [22]: 22% | inhibition of growth at 10 µM [23]: 28.8% | inhibition of growth at 10 µM [24]: 14.8% | inhibition of growth at 10 µM [25]: 21.3% | inhibition of growth at 10 µM [26]: 11.9% | inhibition of growth at 10 µM [27]: 45.7% | inhibition of growth at 10 µM [28]: 14.4% | inhibition of growth at 10 µM [29]: 32.4% | inhibition of growth at 10 µM [30]: 29.1% | inhibition of growth at 10 µM [31]: 22.3% | inhibition of growth at 10 µM [32]: 111% | inhibition of growth at 10 µM [33]: 64.3% | inhibition of growth at 10 µM [34]: 17.8% | inhibition of growth at 10 µM [35]: 1.71% | inhibition of growth at 10 µM [36]: 26.5% | inhibition of growth at 10 µM [37]: 14.4% | inhibition of growth at 10 µM [38]: 8.86% | inhibition of growth at 10 µM [39]: 6.34% | inhibition of growth at 10 µM [40]: 11.4% | inhibition of growth at 10 µM [41]: 47.1% | inhibition of growth at 10 µM [42]: 3.63% | inhibition of growth at 10 µM [43]: 60.4% | inhibition of growth at 10 µM [44]: 26.9%
